# Laboratory results taken from patent US12435059B2, “AMP-activated protein kinase inhibitors and methods of making and using the same” (The Regents of the University of Colorado, priority 2019, dated 2025).
# Where two headings read alike, the source gives them in different places.
# How the values were obtained:
# Test in all cases: biochemical
# Assay type in all cases: binding
# 468 kinases [1] = target: 468 kinases (Homo sapiens, UniProt O43318); settings: TAK1; read-out: % Inhibition @ 100 nM
# 468 kinases [2] = target: 468 kinases (Homo sapiens, UniProt O75385); settings: ULK1; read-out: % Inhibition @ 100 nM
# 468 kinases [3] = target: 468 kinases (Homo sapiens, UniProt O75676); settings: read-out: % Inhibition @ 100 nM
# 468 kinases [4] = target: 468 kinases (Homo sapiens, UniProt P00519); settings: read-out: % Inhibition @ 100 nM
# 468 kinases [5] = target: 468 kinases (Homo sapiens, UniProt P00519, Q252H); settings: read-out: % Inhibition @ 100 nM
# 468 kinases [6] = target: 468 kinases (Homo sapiens, UniProt P00533, G719C); settings: EGFR(G719C); read-out: % Inhibition @ 100 nM
# 468 kinases [7] = target: 468 kinases (Homo sapiens, UniProt P04629); settings: TRKA; read-out: % Inhibition @ 100 nM
# 468 kinases [8] = target: 468 kinases (Homo sapiens, UniProt P08581, Y1235D); settings: MET(Y1235D); read-out: % Inhibition @ 100 nM
# 468 kinases (Homo sapiens, UniProt P08581, Y1235D), sequence (P08581 25-1390 Y1235D limits assumed): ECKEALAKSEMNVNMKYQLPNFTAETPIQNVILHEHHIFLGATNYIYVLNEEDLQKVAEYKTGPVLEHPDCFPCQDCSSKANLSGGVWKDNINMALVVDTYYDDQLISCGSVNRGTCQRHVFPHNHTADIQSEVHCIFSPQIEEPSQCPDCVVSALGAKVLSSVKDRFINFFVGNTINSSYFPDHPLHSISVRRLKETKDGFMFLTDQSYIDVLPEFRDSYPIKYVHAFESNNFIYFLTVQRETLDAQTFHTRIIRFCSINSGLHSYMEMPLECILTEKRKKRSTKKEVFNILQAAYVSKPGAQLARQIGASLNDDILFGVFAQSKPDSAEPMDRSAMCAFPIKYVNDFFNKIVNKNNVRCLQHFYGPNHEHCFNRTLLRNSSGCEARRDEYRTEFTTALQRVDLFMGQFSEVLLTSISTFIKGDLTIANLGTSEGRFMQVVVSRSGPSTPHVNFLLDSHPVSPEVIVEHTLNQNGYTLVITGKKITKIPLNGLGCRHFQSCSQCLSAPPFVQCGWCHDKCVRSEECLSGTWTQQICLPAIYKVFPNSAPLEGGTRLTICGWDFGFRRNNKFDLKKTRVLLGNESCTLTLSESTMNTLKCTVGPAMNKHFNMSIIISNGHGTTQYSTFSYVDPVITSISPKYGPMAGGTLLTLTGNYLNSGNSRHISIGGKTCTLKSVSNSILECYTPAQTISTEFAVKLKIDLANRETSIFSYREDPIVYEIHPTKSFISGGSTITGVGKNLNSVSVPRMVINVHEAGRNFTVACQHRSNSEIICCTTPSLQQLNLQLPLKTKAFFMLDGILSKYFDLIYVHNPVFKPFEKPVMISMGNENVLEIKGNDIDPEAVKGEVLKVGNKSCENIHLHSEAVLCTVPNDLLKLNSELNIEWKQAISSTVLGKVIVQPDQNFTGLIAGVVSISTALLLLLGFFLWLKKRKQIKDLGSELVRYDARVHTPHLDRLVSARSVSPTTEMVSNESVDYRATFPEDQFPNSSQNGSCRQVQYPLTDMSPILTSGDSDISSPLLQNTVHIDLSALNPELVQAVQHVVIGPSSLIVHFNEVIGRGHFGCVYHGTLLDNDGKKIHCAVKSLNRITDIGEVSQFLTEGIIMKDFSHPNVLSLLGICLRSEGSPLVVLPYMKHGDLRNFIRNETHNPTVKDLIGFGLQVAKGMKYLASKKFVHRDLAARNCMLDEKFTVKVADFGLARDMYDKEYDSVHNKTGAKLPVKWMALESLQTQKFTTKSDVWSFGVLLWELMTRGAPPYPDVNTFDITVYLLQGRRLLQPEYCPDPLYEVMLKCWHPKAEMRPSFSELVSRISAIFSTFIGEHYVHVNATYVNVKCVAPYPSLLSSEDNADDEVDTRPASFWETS
# 468 kinases [9] = target: 468 kinases (Homo sapiens, UniProt P09619); settings: PDGFRB; read-out: % Inhibition @ 100 nM
# 468 kinases (Homo sapiens, UniProt P09619), sequence (P09619 33-1106 limits assumed): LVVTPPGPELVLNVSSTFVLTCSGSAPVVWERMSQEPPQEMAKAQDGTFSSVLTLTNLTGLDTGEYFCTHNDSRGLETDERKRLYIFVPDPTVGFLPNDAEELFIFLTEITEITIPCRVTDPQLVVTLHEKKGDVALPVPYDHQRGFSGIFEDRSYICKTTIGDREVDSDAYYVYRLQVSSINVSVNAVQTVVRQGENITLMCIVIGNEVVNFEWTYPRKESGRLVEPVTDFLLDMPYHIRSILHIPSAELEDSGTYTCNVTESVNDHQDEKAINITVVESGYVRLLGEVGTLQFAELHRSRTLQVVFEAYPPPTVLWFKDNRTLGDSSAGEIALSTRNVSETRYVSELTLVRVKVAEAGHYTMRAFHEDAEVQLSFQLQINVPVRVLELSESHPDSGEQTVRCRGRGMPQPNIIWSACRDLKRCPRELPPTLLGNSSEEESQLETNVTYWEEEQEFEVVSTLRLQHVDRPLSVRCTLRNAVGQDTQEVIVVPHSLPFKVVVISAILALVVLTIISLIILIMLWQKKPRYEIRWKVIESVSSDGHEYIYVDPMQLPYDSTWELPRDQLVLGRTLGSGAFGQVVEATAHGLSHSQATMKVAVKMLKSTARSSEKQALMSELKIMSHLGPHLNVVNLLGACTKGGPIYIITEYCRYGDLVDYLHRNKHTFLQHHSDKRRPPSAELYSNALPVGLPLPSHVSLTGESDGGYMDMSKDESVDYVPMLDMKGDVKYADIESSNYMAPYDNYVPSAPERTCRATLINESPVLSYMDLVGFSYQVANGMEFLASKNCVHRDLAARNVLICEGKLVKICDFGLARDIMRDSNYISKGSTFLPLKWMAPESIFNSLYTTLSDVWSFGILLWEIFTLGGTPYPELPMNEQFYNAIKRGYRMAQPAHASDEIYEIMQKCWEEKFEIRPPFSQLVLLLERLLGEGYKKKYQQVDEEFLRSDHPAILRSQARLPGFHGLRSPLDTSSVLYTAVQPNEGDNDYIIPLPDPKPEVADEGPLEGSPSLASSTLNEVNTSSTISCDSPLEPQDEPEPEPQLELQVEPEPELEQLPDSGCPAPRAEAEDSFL
# 468 kinases [10] = target: 468 kinases (Homo sapiens, UniProt P10721, D816H); settings: KIT(D816H); read-out: % Inhibition @ 100 nM
# 468 kinases [11] = target: 468 kinases (Homo sapiens, UniProt P10721, V559D); settings: KIT(V559D); read-out: % Inhibition @ 100 nM
# 468 kinases [12] = target: 468 kinases (Homo sapiens, UniProt P11309); settings: PIM1; read-out: % Inhibition @ 100 nM
# 468 kinases [13] = target: 468 kinases (Homo sapiens, UniProt P21802); settings: FGFR2; read-out: % Inhibition @ 100 nM
# 468 kinases [14] = target: 468 kinases (Homo sapiens, UniProt P30291); settings: WEE1; read-out: % Inhibition @ 100 nM
# 468 kinases [15] = target: 468 kinases (Homo sapiens, UniProt P35590); settings: TIEI; read-out: % Inhibition @ 100 nM
# 468 kinases (Homo sapiens, UniProt P35590), sequence (P35590 22-1138 limits assumed): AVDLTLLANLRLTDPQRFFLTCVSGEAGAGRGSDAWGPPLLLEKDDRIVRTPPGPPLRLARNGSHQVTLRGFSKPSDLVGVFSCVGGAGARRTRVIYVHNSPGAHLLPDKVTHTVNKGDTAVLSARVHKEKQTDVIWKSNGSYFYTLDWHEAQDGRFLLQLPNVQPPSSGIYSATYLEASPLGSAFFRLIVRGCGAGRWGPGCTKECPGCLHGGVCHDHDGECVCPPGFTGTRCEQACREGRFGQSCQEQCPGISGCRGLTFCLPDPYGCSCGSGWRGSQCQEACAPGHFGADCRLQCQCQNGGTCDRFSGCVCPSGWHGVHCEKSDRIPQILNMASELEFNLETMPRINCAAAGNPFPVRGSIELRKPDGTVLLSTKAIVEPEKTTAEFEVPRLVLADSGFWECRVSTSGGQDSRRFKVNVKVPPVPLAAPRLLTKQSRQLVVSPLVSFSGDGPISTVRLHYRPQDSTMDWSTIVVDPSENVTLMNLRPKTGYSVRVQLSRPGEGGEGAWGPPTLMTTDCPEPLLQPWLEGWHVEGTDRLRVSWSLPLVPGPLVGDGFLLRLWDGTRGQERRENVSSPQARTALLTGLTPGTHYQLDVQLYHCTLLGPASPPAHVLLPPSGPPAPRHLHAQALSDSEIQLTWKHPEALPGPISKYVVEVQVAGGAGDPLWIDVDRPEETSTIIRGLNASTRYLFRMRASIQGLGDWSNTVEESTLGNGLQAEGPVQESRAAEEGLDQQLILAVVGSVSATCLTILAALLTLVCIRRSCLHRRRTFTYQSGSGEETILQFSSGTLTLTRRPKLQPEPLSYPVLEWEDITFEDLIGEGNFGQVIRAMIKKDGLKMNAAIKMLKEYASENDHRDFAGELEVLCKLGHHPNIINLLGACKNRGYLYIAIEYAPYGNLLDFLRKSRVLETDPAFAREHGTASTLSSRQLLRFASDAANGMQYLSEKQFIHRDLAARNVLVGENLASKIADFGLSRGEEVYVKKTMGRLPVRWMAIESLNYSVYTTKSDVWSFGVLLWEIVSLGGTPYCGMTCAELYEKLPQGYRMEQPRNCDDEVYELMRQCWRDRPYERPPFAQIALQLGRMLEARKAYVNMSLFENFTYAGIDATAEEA
# 468 kinases [16] = target: 468 kinases (Homo sapiens, UniProt P41240); settings: CSK; read-out: % Inhibition @ 100 nM
# 468 kinases (Homo sapiens, UniProt P41240), sequence (P41240 2-450 limits assumed): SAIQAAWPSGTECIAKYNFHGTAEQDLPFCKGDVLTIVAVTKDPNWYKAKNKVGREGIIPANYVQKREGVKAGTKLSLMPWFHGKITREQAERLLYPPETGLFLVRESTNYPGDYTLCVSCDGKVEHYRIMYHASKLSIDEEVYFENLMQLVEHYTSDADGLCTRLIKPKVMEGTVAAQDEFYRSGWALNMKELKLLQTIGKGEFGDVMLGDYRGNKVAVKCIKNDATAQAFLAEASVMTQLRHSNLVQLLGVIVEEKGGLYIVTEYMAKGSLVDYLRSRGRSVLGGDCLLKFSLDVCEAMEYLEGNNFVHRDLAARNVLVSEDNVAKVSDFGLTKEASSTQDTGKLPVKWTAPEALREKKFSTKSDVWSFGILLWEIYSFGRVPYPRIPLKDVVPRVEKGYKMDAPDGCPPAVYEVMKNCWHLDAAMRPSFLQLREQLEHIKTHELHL
# 468 kinases [17] = target: 468 kinases (Homo sapiens, UniProt P42336, M1043I); settings: PIK3CA(M10431); read-out: % Inhibition @ 100 nM
# 468 kinases [18] = target: 468 kinases (Homo sapiens, UniProt P42336, Q546K); settings: PIK3CA(Q546K); read-out: % Inhibition @ 100 nM
# 468 kinases [19] = target: 468 kinases (Homo sapiens, UniProt P42685); settings: FRK; read-out: % Inhibition @ 100 nM
# 468 kinases [20] = target: 468 kinases (Homo sapiens, UniProt P53355); settings: DAPK1; read-out: % Inhibition @ 100 nM
# 468 kinases [21] = target: 468 kinases (Homo sapiens, UniProt Q02763); settings: TIE2; read-out: % Inhibition @ 100 nM
# 468 kinases [22] = target: 468 kinases (Homo sapiens, UniProt Q05397); settings: FAK; read-out: % Inhibition @ 100 nM
# 468 kinases [23] = target: 468 kinases (Homo sapiens, UniProt Q09013); settings: DMPK; read-out: % Inhibition @ 100 nM
# 468 kinases [24] = target: 468 kinases (Homo sapiens, UniProt Q13164); settings: ERK5; read-out: % Inhibition @ 100 nM
# 468 kinases (Homo sapiens, UniProt Q13164), sequence (Q13164 2-816 limits assumed): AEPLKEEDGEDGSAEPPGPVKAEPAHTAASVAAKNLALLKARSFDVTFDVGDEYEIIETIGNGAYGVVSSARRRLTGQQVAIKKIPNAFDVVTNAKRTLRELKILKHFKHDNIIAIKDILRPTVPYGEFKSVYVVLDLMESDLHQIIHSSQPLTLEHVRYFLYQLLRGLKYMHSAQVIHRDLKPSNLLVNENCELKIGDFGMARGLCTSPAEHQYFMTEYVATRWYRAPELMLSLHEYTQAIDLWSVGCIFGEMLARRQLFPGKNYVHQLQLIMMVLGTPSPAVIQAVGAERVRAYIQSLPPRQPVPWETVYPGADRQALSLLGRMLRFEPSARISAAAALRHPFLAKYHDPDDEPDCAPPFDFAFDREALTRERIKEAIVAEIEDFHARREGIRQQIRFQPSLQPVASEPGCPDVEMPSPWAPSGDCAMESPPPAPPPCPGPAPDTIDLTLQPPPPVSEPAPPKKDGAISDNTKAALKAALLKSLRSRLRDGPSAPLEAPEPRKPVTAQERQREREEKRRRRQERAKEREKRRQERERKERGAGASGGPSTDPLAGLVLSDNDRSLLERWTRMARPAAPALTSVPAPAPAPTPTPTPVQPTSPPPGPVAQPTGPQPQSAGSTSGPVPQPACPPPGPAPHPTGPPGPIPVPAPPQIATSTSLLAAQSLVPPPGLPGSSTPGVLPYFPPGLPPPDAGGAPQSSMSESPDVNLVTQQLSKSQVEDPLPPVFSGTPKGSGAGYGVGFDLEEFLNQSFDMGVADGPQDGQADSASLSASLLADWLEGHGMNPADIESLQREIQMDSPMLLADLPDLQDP
# 468 kinases [25] = target: 468 kinases (Homo sapiens, UniProt Q16832); settings: DDR2; read-out: % Inhibition @ 100 nM
# 468 kinases [26] = target: 468 kinases (Homo sapiens, UniProt Q6P3R8); settings: NEK5; read-out: % Inhibition @ 100 nM
# 468 kinases [27] = target: 468 kinases (Homo sapiens, UniProt Q8NEV4); settings: MYO3A; read-out: % Inhibition @ 100 nM
# 468 kinases [28] = target: 468 kinases (Homo sapiens, UniProt Q8TDC3); settings: BRSK1; read-out: % Inhibition @ 100 nM
# 468 kinases [29] = target: 468 kinases (Homo sapiens, UniProt Q96Q40); settings: PFTAIRE2; read-out: % Inhibition @ 100 nM
# 468 kinases [30] = target: 468 kinases (Homo sapiens, UniProt Q9BZL6); settings: PRKD2; read-out: % Inhibition @ 100 nM
# 468 kinases [31] = target: 468 kinases (Homo sapiens, UniProt Q9Y2H9); settings: MAST1; read-out: % Inhibition @ 100 nM
# 468 kinases [32] = target: 468 kinases (Homo sapiens, UniProt Q9Y616); settings: IRAK3; read-out: % Inhibition @ 100 nM
Compound,inhibition at 0.1 µM (468 kinases [1]),inhibition at 0.1 µM (468 kinases [2]),inhibition at 0.1 µM (468 kinases [3]; RPS6KA4(Kin.Dom.1-N-terminal)),inhibition at 0.1 µM (468 kinases [3]; RPS6KA4(Kin.Dom.2-C-terminal)),inhibition at 0.1 µM (468 kinases [4]; ABL1 -nonphosphorylated),inhibition at 0.1 µM (468 kinases [5]; ABL1 (Q252H)-nonphosphorylated),inhibition at 0.1 µM (468 kinases [5]; ABL1 (Q252H)-phosphorylated),inhibition at 0.1 µM (468 kinases [6]),inhibition at 0.1 µM (468 kinases [7]),inhibition at 0.1 µM (468 kinases [8]),inhibition at 0.1 µM (468 kinases [9]),inhibition at 0.1 µM (468 kinases [10]),inhibition at 0.1 µM (468 kinases [11]),inhibition at 0.1 µM (468 kinases [12]),inhibition at 0.1 µM (468 kinases [13]),inhibition at 0.1 µM (468 kinases [14]),inhibition at 0.1 µM (468 kinases [15]),inhibition at 0.1 µM (468 kinases [16]),inhibition at 0.1 µM (468 kinases [17]),inhibition at 0.1 µM (468 kinases [18]),also measured
"CCN(CC)CCNC(=O)c1c(C)[nH]c(/C=C2\C(=O)Nc3ccc(CCC(N)=O)cc32)c1C [Compound No. 16, (Z)-5-((5-(3-Amino-3-oxopropyl)-2-oxoindolin-3-ylidene)methyl)-N-(2-(diethylamino)ethyl)-2,4-dimethyl-1H-pyrrole-3-carboxamide]",61%,56%,34%,35%,36%,55%,54%,9%,97.4%,0%,61%,33%,0%,0%,1%,24%,14%,1%,12%,3%,inhibition at 0.1 µM (468 kinases [19]): 38%; inhibition at 0.1 µM (468 kinases [20]): 20%; inhibition at 0.1 µM (468 kinases [21]): 0%; inhibition at 0.1 µM (468 kinases [22]): 100%; inhibition at 0.1 µM (468 kinases [23]): 11%; inhibition at 0.1 µM (468 kinases [24]): 100%; inhibition at 0.1 µM (468 kinases [25]): 27%; inhibition at 0.1 µM (468 kinases [26]): 19%; inhibition at 0.1 µM (468 kinases [27]): 1%; inhibition at 0.1 µM (468 kinases [28]): 27%; inhibition at 0.1 µM (468 kinases [29]): 0%; inhibition at 0.1 µM (468 kinases [30]): 16%; inhibition at 0.1 µM (468 kinases [31]): 30%; inhibition at 0.1 µM (468 kinases [32]): 100%
"CCN(CC)CCNC(=O)c1c(C)[nH]c(/C=C2\C(=O)Nc3ccc(CCO)cc32)c1C [Compound No. 10, (Z)—N-(2-(Diethylamino)ethyl)-5-((5-(2-hydroxyethyl)-2-oxoindolin-3-ylidene)methyl)-2,4-dimethyl-1H-pyrrole-3-carboxamide]",59%,58%,8%,0%,54%,33%,19%,32%,95.5%,4%,99.3%,6%,88%,0%,37%,15%,2%,0%,0%,0%,inhibition at 0.1 µM (468 kinases [4]; ABL1 -phosphorylated): 44%; inhibition at 0.1 µM (468 kinases [19]): 0%; inhibition at 0.1 µM (468 kinases [20]): 4%; inhibition at 0.1 µM (468 kinases [21]): 0%; inhibition at 0.1 µM (468 kinases [22]): 8%; inhibition at 0.1 µM (468 kinases [23]): 0%; inhibition at 0.1 µM (468 kinases [24]): 6%; inhibition at 0.1 µM (468 kinases [25]): 12%; inhibition at 0.1 µM (468 kinases [26]): 0%; inhibition at 0.1 µM (468 kinases [27]): 0%; inhibition at 0.1 µM (468 kinases [28]): 29%; inhibition at 0.1 µM (468 kinases [29]): 0%; inhibition at 0.1 µM (468 kinases [30]): 0%; inhibition at 0.1 µM (468 kinases [31]): 40%; inhibition at 0.1 µM (468 kinases [32]): 0%
